One may read the IC50 as the midpoint of a concentration-inhibition curve. The term inhibition denotes the drop in the measured response relative to a control, in per cent.

One test is described as follows: Inhibition of amyloid beta (1 to 40) aggregation assessed as emission of thioflavin T fluorescence in presence of 1,1,1,3,3,3-hexaflouro-2-propanol.
In the case of `O=C(Nc1ccc(Oc2cccc(NC(=O)c3cc(O)c(O)c(O)c3)c2)cc1)c1cc(O)c(O)c(O)c1`, the IC50 came to 12 µM.

Regarding `O=c1c(O)c(-c2ccc(O)c(O)c2)oc2cc(O)cc(O)c12` [QUERCETIN], the IC50 amounted to 0.8 µM.

Turning to `O=C(CNC(=O)c1cc(O)c(O)c(O)c1)NCC(=O)Nc1ccc(Oc2cccc(NC(=O)CNC(=O)CNC(=O)c3cc(O)c(O)c(O)c3)c2)cc1`, the IC50 was found to be 28 µM.

In the case of `O=C(CNC(=O)c1cc(O)c(O)c(O)c1)Nc1ccc(Oc2cccc(NC(=O)CNC(=O)c3cc(O)c(O)c(O)c3)c2)cc1`, the IC50 stood at 1.5 µM.

Another test can be described thus: Inhibition of amyloid beta (1 to 40) aggregation assessed as emission of thioflavin T fluorescence at 100 uM in presence of 1,1,1,3,3,3-hexaflouro-2-propanol.
For the compound `COc1cc(C(=O)NCC(=O)NCc2cccc(CNC(=O)CNC(=O)c3cc(OC)c(OC)c(OC)c3)c2)cc(OC)c1OC`, the inhibition amounted to 28%.

Turning to `O=C(CNC(=O)CNC(=O)c1cc([N+](=O)[O-])cc([N+](=O)[O-])c1)NCC(=O)Nc1ccc(Oc2cccc(NC(=O)CNC(=O)CNC(=O)CNC(=O)c3cc([N+](=O)[O-])cc([N+](=O)[O-])c3)c2)cc1`, the inhibition was 4%.

For the compound `Nc1cccc(Oc2ccc(NC(=O)CNC(=O)CNC(=O)c3cc([N+](=O)[O-])cc([N+](=O)[O-])c3)cc2)c1`, the inhibition worked out at 0%.

Take `O=C(Nc1ccc(Oc2cccc(NC(=O)c3cc(O)c(O)c(O)c3)c2)cc1)c1cc(O)c(O)c(O)c1`: the inhibition stood at 70%.

Take `O=C(NCc1cccc(CNC(=O)c2ccccc2)c1)c1ccccc1`: the inhibition stood at 3%.

On to `COc1cc(C(=O)NCC(=O)Nc2ccc(Oc3cccc(NC(=O)CNC(=O)c4cc(OC)c(OC)c(OC)c4)c3)cc2)cc(OC)c1OC`, for which the inhibition amounted to 9%.

In the case of `O=C(CNC(=O)CNC(=O)c1ccccc1)NCC(=O)NCc1cccc(CNC(=O)CNC(=O)CNC(=O)CNC(=O)c2ccccc2)c1`, the inhibition is 19%.

In the case of `O=C(CNC(=O)CNC(=O)c1cc([N+](=O)[O-])cc([N+](=O)[O-])c1)NCCCNCCCNC(=O)CNC(=O)CNC(=O)c1cc([N+](=O)[O-])cc([N+](=O)[O-])c1`, the inhibition came to 9%.

As to `O=C(CNC(=O)CNC(=O)c1cc([N+](=O)[O-])cc([N+](=O)[O-])c1)NCc1cccc(CNC(=O)CNC(=O)CNC(=O)c2cc([N+](=O)[O-])cc([N+](=O)[O-])c2)c1`, the inhibition was 23%.

Consider `COc1cc(C(=O)NCC(=O)NCC(=O)NCC(=O)NCc2cccc(CNC(=O)CNC(=O)CNC(=O)CNC(=O)c3cc(OC)c(OC)c(OC)c3)c2)cc(OC)c1OC`, for which the inhibition was determined as 15%.

Turning to `O=C(CNC(=O)c1cc(O)c(O)c(O)c1)NCc1cccc(CNC(=O)CNC(=O)c2cc(O)c(O)c(O)c2)c1`, the inhibition turned out to be 39%.

Turning to `COc1cc(C(=O)NCC(=O)NCC(=O)Nc2ccc(Oc3cccc(NC(=O)CNC(=O)CNC(=O)c4cc(OC)c(OC)c(OC)c4)c3)cc2)cc(OC)c1OC`, the inhibition came to 40%.

As for `O=C(CNC(=O)c1ccccc1)NCC(=O)Nc1ccc(Oc2cccc(NC(=O)CNC(=O)CNC(=O)c3ccccc3)c2)cc1`, the inhibition is -3%.

Consider `O=C(CNC(=O)c1cc(O)c(O)c(O)c1)NCC(=O)Nc1ccc(Oc2cccc(NC(=O)CNC(=O)CNC(=O)c3cc(O)c(O)c(O)c3)c2)cc1`, for which the inhibition was 80%.

Take `O=C(CNC(=O)c1ccccc1)NCc1cccc(CNC(=O)CNC(=O)c2ccccc2)c1`: the inhibition was determined as 9%.

`O=C(O)CNC(=O)CNC(=O)CNC(=O)c1cc([N+](=O)[O-])cc([N+](=O)[O-])c1`: the inhibition was 36%.

Take `O=C(CNC(=O)CNC(=O)c1cc(O)c(O)c(O)c1)NCC(=O)NCc1cccc(CNC(=O)CNC(=O)CNC(=O)CNC(=O)c2cc(O)c(O)c(O)c2)c1`: the inhibition was 4%.

`O=C(NCc1cccc(CNC(=O)c2cc([N+](=O)[O-])cc([N+](=O)[O-])c2)c1)c1cc([N+](=O)[O-])cc([N+](=O)[O-])c1`: the inhibition is 4%.

On to `COc1cc(C(=O)NCCCCC(=O)Nc2ccc(Oc3cccc(NC(=O)CCCCNC(=O)c4cc(OC)c(OC)c(OC)c4)c3)cc2)cc(OC)c1OC`, for which the inhibition was 0%.

For `COc1cc(C(=O)NCc2cccc(CNC(=O)c3cc(OC)c(OC)c(OC)c3)c2)cc(OC)c1OC`, the inhibition was 19%.

With `O=C(CNC(=O)c1ccccc1)Nc1ccc(Oc2cccc(NC(=O)CNC(=O)c3ccccc3)c2)cc1`, the inhibition is 7%.

`O=C(CNC(=O)c1cc(O)c(O)c(O)c1)Nc1ccc(Oc2cccc(NC(=O)CNC(=O)c3cc(O)c(O)c(O)c3)c2)cc1`: the inhibition was determined as 79%.

Take `O=C(CNC(=O)c1cc([N+](=O)[O-])cc([N+](=O)[O-])c1)Nc1ccc(Oc2cccc(NC(=O)CNC(=O)c3cc([N+](=O)[O-])cc([N+](=O)[O-])c3)c2)cc1`: the inhibition came out at 44%.

For `O=C(NCc1cccc(CNC(=O)c2cc(O)c(O)c(O)c2)c1)c1cc(O)c(O)c(O)c1`, the inhibition was found to be 61%.

Regarding `O=C(CNC(=O)CNC(=O)c1ccccc1)NCc1cccc(CNC(=O)CNC(=O)CNC(=O)c2ccccc2)c1`, the inhibition turned out to be 10%.

On to `O=C(CNC(=O)CNC(=O)c1ccccc1)NCC(=O)Nc1ccc(Oc2cccc(NC(=O)CNC(=O)CNC(=O)CNC(=O)c3ccccc3)c2)cc1`, for which the inhibition was -3%.

In the case of `COc1cc(C(=O)NCC(=O)NCC(=O)NCC(=O)Nc2ccc(Oc3cccc(NC(=O)CNC(=O)CNC(=O)CNC(=O)c4cc(OC)c(OC)c(OC)c4)c3)cc2)cc(OC)c1OC`, the inhibition was determined as 20%.

Turning to `O=C(CNC(=O)CNC(=O)c1cc(O)c(O)c(O)c1)NCc1cccc(CNC(=O)CNC(=O)CNC(=O)c2cc(O)c(O)c(O)c2)c1`, the inhibition is 5%.

Consider `COc1cc(C(=O)NCC(=O)NCC(=O)NCc2cccc(CNC(=O)CNC(=O)CNC(=O)c3cc(OC)c(OC)c(OC)c3)c2)cc(OC)c1OC`, for which the inhibition was 31%.

As for `O=C(CNC(=O)CNC(=O)c1cc([N+](=O)[O-])cc([N+](=O)[O-])c1)NCC(=O)NCc1cccc(CNC(=O)CNC(=O)CNC(=O)CNC(=O)c2cc([N+](=O)[O-])cc([N+](=O)[O-])c2)c1`, the inhibition amounted to 13%.

With `O=C(CNC(=O)C1CCCCC1)NCC(=O)Nc1ccc(Oc2cccc(NC(=O)CNC(=O)CNC(=O)C3CCCCC3)c2)cc1`, the inhibition was 17%.

Regarding `O=C(CNC(=O)c1cc([N+](=O)[O-])cc([N+](=O)[O-])c1)NCc1cccc(CNC(=O)CNC(=O)c2cc([N+](=O)[O-])cc([N+](=O)[O-])c2)c1`, the inhibition was found to be 33%.

`O=C(CNC(=O)c1cc([N+](=O)[O-])cc([N+](=O)[O-])c1)NCC(=O)Nc1ccc(Oc2cccc(NC(=O)CNC(=O)CNC(=O)c3cc([N+](=O)[O-])cc([N+](=O)[O-])c3)c2)cc1`: the inhibition amounted to 30%.

As to `COc1cc(C(=O)NCC(=O)NCC(=O)NCC(=O)O)cc(OC)c1OC`, the inhibition was determined as 11%.

These data come from ChEMBL document CHEMBL1157205, “Design, synthesis, and biological evaluation of glycine-based molecular tongs as inhibitors of Abeta1-40 aggregation in vitro” (Bioorg Med Chem, 2008).
